The record followed here is patent publication US10239843B2 (CANCER RESEARCH TECHNOLOGY LIMITED, priority 2014, dated 2019).

The subject of one experiment is PARG in HeLa cell line. Description: PARG cell assay (PAR chain immunofluorescence after MMS). The class given is cell-based. The note with it: HeLa cells, MMS treatment; read-out: PARG Cell IC50. The procedure: This method is based on the detection of endogenous levels of poly (ADP) ribose chains present in the nucleus of HeLa cell line using indirect immunofluorescence. MMS stimulation increases PAR chains for up to 25 mins. After that point, PARG is active and breaks down the PAR chains, until by one hour after stimulation no PAR chains are detectable. Inhibition of PARG maintains PAR chains.
Briefly, following compound treatment and treatment with the DNA damaging agent methylmethanesulfonate (MMS), the cell monolayer is fixed, then permeabilised and incubated with a mouse monoclonal antibody raised against multimers of poly(ADP) ribose.
At the end of the 1 h dosing period, MMS was added to duplicates at a final concentration of 50 μg/mL, for a further hour.
Media was tipped off and the cells fixed with 50 μL ice-cold 95% MetOH/PBS for 15 mins at −20° C. Following a PBS wash, 50 μL PBS/0.1% Triton was added to the cells for 20 mins. Following another PBS wash, anti-PAR antibody (Calbiochem AM80) was diluted 1:4000 in a buffer (PBS+0.5% FBS+0.05% Tween20) and added to the cells and incubated overnight at 4° C.
Cells were washed three times with PBS and the plate sealed with a light-proof seal.
By IC50 is commonly meant the midpoint of a concentration-inhibition curve. For the molecule “1-[(2,5-Dimethylpyrazol-3-yl)methyl]-3-[(1-methylpyrazol-4-yl)methyl]-2,4-dioxo-N-[1-(trideuteriomethyl)cyclopropyl]quinazoline-6-sulfonamide [Example 490]”, the IC50 turned out to be 70 nM.

The experiment is the same for the next values; noted with them: Homo sapiens; HeLa cells, MMS 50 μg/mL; read-out: PARG Cell IC50 Geomean.
On to `Cn1c(=O)c2cc(S(=O)(=O)NC3(C)CC3)ccc2n(CC2CC2)c1=O` [Example 23], for which the IC50 amounted to 519 nM.

As for `CC1CC1Cn1c(=O)n(C)c(=O)c2cc(S(=O)(=O)NC3(C)CC3)ccc21` (centres unmarked) [Example 35], the half-maximal inhibitory concentration (IC50) was determined as 409 nM.

Consider `Cn1c(=O)c2cc(S(=O)(=O)NC3(C)CC3)ccc2n(CC2CC2(F)F)c1=O` (centres unmarked) [Example 36], for which the IC50 was 591 nM. Same read-out and setting: as for `COc1ccc(Cn2c(=O)n(C)c(=O)c3cc(S(=O)(=O)NC4(C)CC4)ccc32)cc1` [Example 61], the figure is 199 nM; as for `Cn1c(=O)c2cc(S(=O)(=O)NC3(C)CC3)ccc2n(Cc2ccccc2C#N)c1=O` [Example 68], 306 nM.

For the molecule `CCC#CCn1c(=O)n(C)c(=O)c2cc(S(=O)(=O)NC3(C)CC3)ccc21` [Example 137], the concentration for half-maximal inhibition (IC50) came to 608 nM. For the molecule `Cn1cc(Cn2c(=O)c3cc(S(=O)(=O)NC4(C)CC4)ccc3n(CC3CC3)c2=O)cn1` [Example 174], the IC50 turned out to be 56 nM. Same read-out and setting: as for `Cc1cc(Cn2c(=O)c3cc(S(=O)(=O)NC4(C)CC4)ccc3n(CC3CC(C)(C)O3)c2=O)on1` (centres unmarked) [Example 352], the figure is 608 nM. The same measure, in the same setting: with `Cn1cc(Cn2c(=O)c3cc(S(=O)(=O)NC4(C)CC4)ccc3n(CC3CN(C(=O)OC(C)(C)C)C3)c2=O)cn1` [Example 365] the figure was 218 nM.

The experiment is the same for the next values; noted with them: Homo sapiens; HeLa cells, MMS treatment; read-out: PARG Cell IC50.
Consider `Cc1cc2cc(S(=O)(=O)NC3(C)CC3)ccc2n(CC2CC2)c1=O` [Example 426, 1-(Cyclopropylmethyl)-3-methyl-N-(1-methylcyclopropyl)-2-oxo-quinoline-6-sulfonamide], for which the half-maximal inhibitory concentration (IC50) worked out at 1400 nM. In the case of `Cn1cc(Cn2c(=O)[nH]c3ccc(S(=O)(=O)NC4(C)CC4)cc3c2=O)cn1` [Example 430, N-(1-Methylcyclopropyl)-3-[(1-methylpyrazol-4-yl)methyl]-2,4-dioxo-1H-quinazoline-6-sulfonamide], the IC50 came out at 1080 nM.

For `Cn1c(=O)n(Cc2ccno2)c(=O)c2cc(S(=O)(=O)NC3(CF)CC3)ccc21` [Example 513, N-[1-(Fluoromethyl)cyclopropyl]-3-(isoxazol-5-ylmethyl)-1-methyl-2,4-dioxo-quinazoline-6-sulfonamide], the half-maximal inhibitory concentration (IC50) came out at 534 nM.

In the case of `Cc1cc(Cn2c(=O)c3cc(S(=O)(=O)NC4(CF)CC4)ccc3n(CCF)c2=O)on1` [Example 526, 1-(2-Fluoroethyl)-N-[1-(fluoromethyl)cyclopropyl]-3-[(3-methylisoxazol-5-yl)methyl]-2,4-dioxo-quinazoline-6-sulfonamide], the IC50 came out at 133 nM. As to `Cc1cc(Cn2c(=O)n(Cc3nnc(C)s3)c(=O)c3cc(S(=O)(=O)NC4(CF)CC4)ccc32)n(C)n1` [Example 603, 1-[(2,5-Dimethylpyrazol-3-yl)methyl]-N-[1-(fluoromethyl)cyclopropyl]-3-[(5-methyl-1,3,4-thiadiazol-2-yl)methyl]-2,4-dioxo-quinazoline-6-sulfonamide], the IC50 was determined as 496 nM.

The target of the next experiment is Human Full Length PARG (Homo sapiens (Human), UniProt Q86W56). In words: PARG enzyme assay (TR-FRET). Type of experiment: biochemical. The note with it: read-out: PARG Biochem IC50.
Sequence of Human Full Length PARG (Q86W56 whole entry): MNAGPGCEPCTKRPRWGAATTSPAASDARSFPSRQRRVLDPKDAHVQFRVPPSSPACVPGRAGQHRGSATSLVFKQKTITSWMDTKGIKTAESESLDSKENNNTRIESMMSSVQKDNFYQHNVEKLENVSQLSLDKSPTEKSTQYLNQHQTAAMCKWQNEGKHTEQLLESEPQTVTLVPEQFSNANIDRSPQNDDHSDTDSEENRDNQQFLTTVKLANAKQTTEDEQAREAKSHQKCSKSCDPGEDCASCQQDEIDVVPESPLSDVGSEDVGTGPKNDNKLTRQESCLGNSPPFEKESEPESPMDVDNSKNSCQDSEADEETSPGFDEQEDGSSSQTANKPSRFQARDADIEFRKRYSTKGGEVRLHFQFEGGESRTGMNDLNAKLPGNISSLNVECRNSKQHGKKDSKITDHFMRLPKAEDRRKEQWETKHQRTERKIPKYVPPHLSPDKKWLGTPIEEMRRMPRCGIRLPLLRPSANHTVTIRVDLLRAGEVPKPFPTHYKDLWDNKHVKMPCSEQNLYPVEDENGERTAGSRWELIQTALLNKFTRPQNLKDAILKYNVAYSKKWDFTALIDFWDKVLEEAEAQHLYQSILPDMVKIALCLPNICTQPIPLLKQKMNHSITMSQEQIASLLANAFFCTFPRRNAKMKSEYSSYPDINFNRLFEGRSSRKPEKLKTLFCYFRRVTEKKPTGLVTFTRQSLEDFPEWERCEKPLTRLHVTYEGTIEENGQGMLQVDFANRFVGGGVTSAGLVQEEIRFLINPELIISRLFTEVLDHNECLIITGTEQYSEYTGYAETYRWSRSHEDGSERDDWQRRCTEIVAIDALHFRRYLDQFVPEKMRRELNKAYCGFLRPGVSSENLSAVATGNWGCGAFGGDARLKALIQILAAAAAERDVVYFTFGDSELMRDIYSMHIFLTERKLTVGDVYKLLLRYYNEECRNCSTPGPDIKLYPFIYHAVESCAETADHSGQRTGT
`Cn1c(=O)n(Cc2nnc(C(F)(F)F)o2)c(=O)c2cc(S(=O)(=O)NC3(C)CC3)ccc21` [Example 501, 1-Methyl-N-(1-methylcyclopropyl)-2,4-dioxo-3-[[5-(trifluoromethyl)-1,3,4-oxadiazol-2-yl]methyl]quinazoline-6-sulfonamide]: the IC50 was determined as 1610 nM. Same read-out and setting: with `Cn1c(=O)n(Cc2cnc[nH]2)c(=O)c2cc(S(=O)(=O)NC3(C)CC3)ccc21` [Example 505, 3-(1H-Imidazol-4-ylmethyl)-1-methyl-N-(1-methylcyclopropyl)-2,4-dioxo-quinazoline-6-sulfonamide] the figure was 3790 nM. Still for that read-out and setting: with `CC(C)n1cc(Cn2c(=O)c3cc(S(=O)(=O)NC4(C)CC4)ccc3n(C)c2=O)cn1` [Example 507, 3-[(1-Isopropylpyrazol-4-yl)methyl]-1-methyl-N-(1-methylcyclopropyl)-2,4-dioxo-quinazoline-6-sulfonamide] the figure was 4130 nM; with `Cn1nnnc1Cn1c(=O)c2cc(S(=O)(=O)NC3(C)CC3)ccc2n(C)c1=O` [Example 508, 1-Methyl-N-(1-methylcyclopropyl)-3-[(1-methyltetrazol-5-yl)methyl]-2,4-dioxo-quinazoline-6-sulfonamide], 2770 nM; with `CC(C)c1nnsc1Cn1c(=O)c2cc(S(=O)(=O)NC3(C)CC3)ccc2n(C)c1=O` [Example 509, 3-[(4-Isopropylthiadiazol-5-yl)methyl]-1-methyl-N-(1-methylcyclopropyl)-2,4-dioxo-quinazoline-6-sulfonamide], 7220 nM. In the case of `Cn1c(=O)n(Cc2ccns2)c(=O)c2cc(S(=O)(=O)NC3(C)CC3)ccc21` [Example 510, 3-(Isothiazol-5-ylmethyl)-1-methyl-N-(1-methylcyclopropyl)-2,4-dioxo-quinazoline-6-sulfonamide], the IC50 came to 2290 nM. Same read-out and setting: with `Cc1nonc1Cn1c(=O)c2cc(S(=O)(=O)NC3(C)CC3)ccc2n(C)c1=O` [Example 511, 1-Methyl-N-(1-methylcyclopropyl)-3-[(4-methyl-1,2,5-oxadiazol-3-yl)methyl]-2,4-dioxo-quinazoline-6-sulfonamide] the figure was 2060 nM; with `Cn1c(=O)[nH]c(=O)c2cc(S(=O)(=O)NC3(CF)CC3)ccc21` [Example 512, N-[1-(Fluoromethyl)cyclopropyl]-1-methyl-2,4-dioxo-quinazoline-6-sulfonamide], 2950 nM. Same read-out and setting: with `COCCn1c(=O)n(Cc2cc(C)no2)c(=O)c2cc(S(=O)(=O)NC3(CF)CC3)ccc21` [Example 527, N-[1-(Fluoromethyl)cyclopropyl]-1-(2-methoxyethyl)-3-[(3-methylisoxazol-5-yl)methyl]-2,4-dioxo-quinazoline-6-sulfonamide] the figure was 208 nM. Consider `Cn1c(=O)n(CC(=O)c2ccncc2)c(=O)c2cc(S(=O)(=O)NC3(C)CC3)ccc21` [Example 528, 1-Methyl-N-(1-methylcyclopropyl)-2,4-dioxo-3-[2-oxo-2-(4-pyridyl)ethyl]quinazoline-6-sulfonamide], for which the IC50 was found to be 1740 nM. Same read-out and setting: as for `Cn1c(=O)n(CC(=O)c2cccs2)c(=O)c2cc(S(=O)(=O)NC3(C)CC3)ccc21` [Example 529, 1-Methyl-N-(1-methylcyclopropyl)-2,4-dioxo-3-[2-oxo-2-(2-thienyl)ethyl]quinazoline-6-sulfonamide], the figure is 1050 nM.

Regarding `Cn1c(=O)n(CC(=O)c2ccccc2)c(=O)c2cc(S(=O)(=O)NC3(C)CC3)ccc21` [Example 530, 1-Methyl-N-(1-methylcyclopropyl)-2,4-dioxo-3-phenacyl-quinazoline-6-sulfonamide], the IC50 turned out to be 1610 nM.

For `Cn1c(=O)n(CC(=O)c2ccc(C#N)cc2)c(=O)c2cc(S(=O)(=O)NC3(C)CC3)ccc21` [Example 531, 3-[2-(4-Cyanophenyl)-2-oxo-ethyl]-1-methyl-N-(1-methylcyclopropyl)-2,4-dioxo-quinazoline-6-sulfonamide], the 50% inhibitory concentration (IC50) amounted to 3270 nM. Same read-out and setting: with `Cn1c(=O)n(Cc2cncs2)c(=O)c2cc(S(=O)(=O)NC3(CF)CC3)ccc21` [Example 534, N-[1-(Fluoromethyl)cyclopropyl]-1-methyl-2,4-dioxo-3-(thiazol-5-ylmethyl)quinazoline-6-sulfonamide] the figure was 578 nM.

Staying with this experiment, now noted: read-out: PARG Biochem IC50 Geomean.
`CC1CC1Cn1c(=O)n(C)c(=O)c2cc(S(=O)(=O)NC3(C)CC3)ccc21` (centres unmarked) [Example 35]: the IC50 was determined as 246 nM. On the same count and under the same terms, with `COc1ccc(Cn2c(=O)n(C)c(=O)c3cc(S(=O)(=O)NC4(C)CC4)ccc32)cc1` [Example 61] the figure was 454 nM. As to `Cn1c(=O)c2cc(S(=O)(=O)NC3(C)CC3)ccc2n(Cc2ccccc2C#N)c1=O` [Example 68], the 50% inhibitory concentration (IC50) worked out at 324 nM.
